Marks after values point to notes of the source that are not given here.
Assays:
Type in all cases: cell-based
mouse embryo = assay: Mouse embryo development in culture, 48 h in G1.2, with or without citrate
Protocol: Embryos were cultured at 37° C. in 6% CO2:5% O2:89% N2 in an embryo incubation volume of 10 embryos: 20 μl of medium. Embryos were cultured in medium G1.2 for 48 h.

outbred mouse embryo = assay: Outbred mouse embryo development in culture, fertilized eggs cultured 4 days (G1.2 48 h, then G2.2 48 h)
Protocol: Embryos were cultured at 37° C. in 6% CO2:5% O2:89% N2 in an embryo incubation volume of 10 embryos: 20 μl of medium. Embryos were cultured in medium G 1.2 for 48 h followed by 48 h of culture in medium G 2.2.
Initial experiments investigated replacing albumin purified from blood with HYN for outbred mouse embryo development in culture. Fertilized eggs were cultured for 4 days in one of 4 different concentrations of HYN. Embryos were cultured at 37° C. in 6% CO2:5% O2:89% N2 in an embryo incubation volume of 10 embryos: 20 μl of medium. Embryos were cultured in medium G1.2 for 48 h followed by 48 h of culture in medium G2.2. The negative control treatment was no protein.
Fertilized eggs were cultured for 4 days. Embryos were cultured at 37° C. in 6% CO2:5% O2:89% N2 in an embryo incubation volume of 10 embryos: 20 μl of medium. Embryos were cultured in medium G 1.2 for 48 h followed by 48 h of culture in medium G 2.2.
Embryos were cultured at 37° C. in 6% CO2:5% O2:89% N2 in an embryo incubation volume of 10 embryos: 20 μl of medium. Embryos were cultured in medium G1.2 for 48 h followed by 48 h of culture in medium G2.2.

cow embryos = assay: Cow embryo development in culture, fertilized eggs cultured 6 to 7 days (G1.2 72 h, then G2.2 72 h); settings: Example 7, cow
Protocol: (§1) Fertilized eggs were cultured for 6 to 7 days. Embryos were cultured at 38.5° C. in 6% CO2:5% O2:89% N2 in 500 μl of medium. Embryos were cultured in medium G1.2 for 72 h followed by 72 h of culture in medium G2.2.
as §1
Fertilized eggs were cultured for 6 to 7 days. Embryos were cultured at 38.5° C. in 6% CO2:5% O2:89% N2 in 500 μl of medium. Embryos were cultured in medium G1.2 for 72 h, followed by 72 h of culture in medium G2.2. Blastocysts were either stained for cell numbers or frozen and subsequently thawed to assess survival.

CF1 mouse blastocysts = assay: Blastocyst attachment and outgrowth in culture following cryopreservation
Protocol: The ability of the blastocysts to outgrow in culture following cryopreservation was also assessed. The outgrowth of both the ICM and TE was scored between 0-3 where 0 represented no outgrowth and 3 represented extensive outgrowth.

[1] = citrate added to medium G1.2 with rHA and HYN
[2] = treatment +/+ (citrate in first 48 h / further 48 h), medium with rHA and HYN
[3] = treatment +/− (citrate in first 48 h / further 48 h), medium with rHA and HYN
[4] = treatment −/+ (citrate in first 48 h / further 48 h), medium with rHA and HYN
[5] = HYN 0.125 mg/ml, no protein, 4 days culture
[6] = HYN 0.5 mg/ml, no protein, 4 days culture
[7] = HYN 1 mg/ml, no protein, 4 days culture

O=C(O)CC(O)(CC(=O)O)C(=O)O [citrate]
% 8 cell (mouse embryo; [1]): 81.1* % | % compacted (mouse embryo; [1]): 12.2* % | Day 3 mean cell number (mouse embryo; [1]): 7.21 ± 0.13 | embryo development (mouse embryo; citrate added to medium containing rHA and fermented HYN): significant increase | embryo development (outbred mouse embryo; Example 6, citrate added to medium with rHA and HYN, 96 h): significantly increased | % ICM/Total (outbred mouse embryo; [2]): 30.4% | Cell Number (outbred mouse embryo; [2]): 100.7 | Hatching (% of Total) (outbred mouse embryo; [2]): 18.2% | Morula/Blastocyst (%) (outbred mouse embryo; [2]): 72.7% | TE Number (outbred mouse embryo; [2]): 69.8 | Total Blastocyst (%) (outbred mouse embryo; [2]): 62.7% | % ICM/Total (outbred mouse embryo; [3]): 30.7% | Cell Number (outbred mouse embryo; [3]): 112.6 | Hatching (% of Total) (outbred mouse embryo; [3]): 16.8% | ICM Number (outbred mouse embryo; [3]): 34.9 | Morula/Blastocyst (%) (outbred mouse embryo; [3]): 71.3% | TE Number (outbred mouse embryo; [3]): 77.7 | Total Blastocyst (%) (outbred mouse embryo; [3]): 67.3% | % ICM/Total (outbred mouse embryo; [4]): 34.5% | Cell Number (outbred mouse embryo; [4]): 94.8 | Hatching (% of Total) (outbred mouse embryo; [4]): 23.2% | ICM Number (outbred mouse embryo; [4]): 33.4 | Morula/Blastocyst (%) (outbred mouse embryo; [4]): 68.5% | TE Number (outbred mouse embryo; [4]): 61.44 | Total Blastocyst (%) (outbred mouse embryo; [4]): 64.8%

hyaluronan [HYN]
Total Blastocyst Day 6 (cow embryos; day 6): 16.9^b | Total Blastocyst Day 7 (cow embryos; day 7): 30.4 | development of the ICM (outgrowth) compared to human serum albumin (CF1 mouse blastocysts): increased | % ICM/Total (outbred mouse embryo; [5]): 26.5 ± 0.6^ac % | Blastocyst (outbred mouse embryo; [5]): 88.6^a | Cell Number (outbred mouse embryo; [5]): 79.6 ± 1.9^bc | Hatching (outbred mouse embryo; [5]): 57.1b^c | ICM Number (outbred mouse embryo; [5]): 21.2 ± 0.8^bc | TE Number (outbred mouse embryo; [5]): 58.7 ± 1.5^bc | % ICM/Total (outbred mouse embryo; [6]): 28.3 ± 1.1^bc % | Blastocyst (outbred mouse embryo; [6]): 100^a | Cell Number (outbred mouse embryo; [6]): 64.2 ± 1.9^ac | Hatching (outbred mouse embryo; [6]): 50^b | ICM Number (outbred mouse embryo; [6]): 18.0 ± 0.7^ac | TE Number (outbred mouse embryo; [6]): 46.7 ± 2.0^a | % ICM/Total (outbred mouse embryo; [7]): 26.4 ± 0.9^ac % | Blastocyst (outbred mouse embryo; [7]): 61.8^b | Cell Number (outbred mouse embryo; [7]): 62.0 ± 2.7^ac | Hatching (outbred mouse embryo; [7]): 23.5^a | ICM Number (outbred mouse embryo; [7]): 17.5 ± 0.8^ac | TE Number (outbred mouse embryo; [7]): 49.1 ± 2.5^a | mouse embryo development (outbred mouse embryo; concentrations from 0.125 to 0.5 mg/ml): stimulated
